The values that follow come from US9393236B2, “Use of 4-cyclopropylmethoxy-N-(3,5-dichloro-1-oxido-4-pyridin-4-yl)-5-(methoxy)pyridine-2-carboxamide in the treatment of cranial traumas” (SANOFI, priority 2007, dated 2016).

One data set has as its system ferret. Kind of data set: Evaluation of the emetic effects in the ferret. It counts as in vivo. The procedure: The emetic capacity of 4-cyclopropylmethoxy-N-(3,5-dichloro-1-oxidopyridin-4-yl)-5-(methoxy)pyridine-2-carboxamide was evaluated in the ferret. Two groups of ferrets were used, the first receiving the carrier (PEG200) and the second receiving 4-cyclopropyl methoxy-N-(3,5-dichloro-1-oxidopyridin-4-yl)-5-(methoxy)pyridine-2-carboxamide in solution in the carrier (PEG 200), by oral gavage. The animals were observed continually for the 2 hours following the administration, and then every hour up to 6 hours after the administration. The clinical signs (in particular retching and vomiting) were noted.
The emetic capacity of (R)-(−)-rolipram was evaluated in the ferrets. Two groups of ferrets were used, the first being given the carrier (PEG200) and the second being given the (((4R)-4-[3-(cyclopentyloxy)-4-methoxyphenyl]pyrrolidine-2-one)) in solution in the carrier (PEG 200), by oral gavage, at doses of 0.05 mg/kg and of 0.1 mg/kg. The animals were observed continually for the 2 hours following administration, and then once an hour up to 6 hours after the administration. The clinical signs were noted.

The test system of data set [1] is rats with parietal cranial trauma. Kind of data set: CFR (Conditioned Freezing Response) test after a parietal cranial trauma. The settings on record: rat; 0.05 mg/kg i.v. 4 h after surgery (D0), then 0.1 mg/kg/day per os twice a day D1-D21; CFR measured D23/D24; p<0.001 vs traumatized animal given the carrier. It counts as in vivo, rat (Sprague-Dawley). As to the method:
After general anaesthesia, rats (Sprague-Dawley, male, 150-200 g, Charles River) are placed in a stereotaxis frame. A craniotomy is performed at the level of the parietal cortex (AP: 3.5 mm; LAT: 7 mm and 3.5 mm below the cranial roof). A catheter connected to an HPLC pump is placed in contact with the dura mater and a pressure of 0.073 Kpsi is exerted.
The animals are treated intravenously 4 h after the surgery (D0) by administering a solution of 4-cyclopropylmethoxy-N-(3,5-dichloro-1-oxidopyridin-4-yl)-5-(methoxy)pyridine-2-carboxamide in the carrier (PEG200/physiological saline (NaCl 0.9%)), at the dose of 0.05 mg/kg.
Starting from D1 and up to D21 post-surgery, the animals are treated with a solution containing 4-cyclopropylmethoxy-N-(3,5-dichloro-1-oxidopyridin-4-yl)-5-(methoxy)pyridine-2-carboxamide in the carrier (methylcellulose (MC) (0.6%)+tween-80 (0.5%) in water) per os, twice a day, at the total daily dose of 0.1 mg/kg.
The deficiency in the CFR was measured at days D23 and D24 post-surgery.
At D23, the animal is placed in a box, where it receives an electric shock of 0.6 mA for 1.5 s.
At D24, the animal is again placed in the same box and the duration of immobility is measured for 3 minutes.

The mark [2] stands for this setting: 0.1 mg/kg by oral gavage in PEG200, observed up to 6 hours.

SMILES strings stand for the structures.

On to `COc1cnc(C(=O)Nc2c(Cl)c[n+]([O-])cc2Cl)cc1OCC1CC1` [4-Cyclopropylmethoxy-N-(3,5-dichloro-1-oxidopyridin-4-yl)-5-(methoxy)pyridine-2-carboxamide], for which the “emetic effects (retching and vomiting)” value in the data set on ferret (setting [2]) is listed as “induces no retching or vomiting”. Besides, in data set [1], the “inhibition of the deficiency (immobility time in CFR) induced by a cranial trauma” value amounted to 100%.
On to `COc1ccc([C@@H]2CNC(=O)C2)cc1OC1CCCC1` [(R)-(−)-rolipram, (4R)-4-[3-(cyclopentyloxy)-4-methoxyphenyl]pyrrolidine-2-one], for which the “emetic effects (retching and vomiting)” value is given as “induces vomiting” with ferret (0.05 mg/kg by oral gavage in PEG200, observed up to 6 hours) and “induces vomiting” in the data set with ferret (setting [2]).
